The record followed here is ChEMBL document CHEMBL5149985, “Discovery of cytotoxic natural products from Red Sea sponges: Structure and synthesis” (Eur J Med Chem, 2021).

pIC50: −log10 of the molar value.

In one assay the test system is KB 3-1. Briefly: Anticancer activity against human KB 3-1 cells assessed as inhibition in cell growth. Format: functional, cell-based.
Assay [1] is described as follows: Inhibition of actin (unknown origin) polymerization incubated for 20 mins in presence of ATP by ELISA analysis. Further details: species or system Homo sapiens.
The subject of the next assay is MDA-MB-231. Description: Anticancer activity against human MDA-MB-231 cells assessed as inhibition of cell growth incubated for 72 hrs by MTT assay. It counts as functional, cell-based. To be noted: MDA-MB-231, 72 h.
Assay [2] in a line: Inhibition of actin (unknown origin) polymerization at 100 nM incubated for 20 mins in presence of ATP by ELISA analysis relative to control. Conditions: Homo sapiens.
For a further assay, the species on record is Homo sapiens. Description: Inhibition of actin (unknown origin) polymerization at 1 uM incubated for 20 mins in presence of ATP by ELISA analysis relative to control.
Assay [3] relates to HepG2. Description: Anticancer activity against human HepG2 cells assessed as inhibition of cell growth incubated for 72 hrs by SRB assay. Conditions: HepG2, 72 h. Format: functional, cell-based.
Assay [4] relates to MCF7. Briefly: Anticancer activity against human MCF7 cells assessed as inhibition of cell growth incubated for 72 hrs by SRB assay. It counts as functional, cell-based. To be noted: MCF7, 72 h.
For another assay, the system named is HCT-116. Description: Anticancer activity against human HCT-116 cells assessed as inhibition of cell growth incubated for 72 hrs by SRB assay. To be noted: HCT-116, 72 h. It counts as functional, cell-based.
A further assay concerns HeLa. Description: Anticancer activity against human HeLa cells assessed as inhibition of cell growth. Format: functional, cell-based.
Another assay concerns P388. Description: Anticancer activity against mouse P388 cells assessed as cell growth inhibition. It counts as functional, cell-based.
The test system of assay [5] is HepG2. Description: cells. To be noted: Homo sapiens.
Description: Anticancer activity against human HepG2 cells assessed as inhibition of cell growth by MTT assay
Assay [6] concerns MCF7. Briefly: Anticancer activity against human MCF7 cells assessed as inhibition of cell growth incubated for 72 hrs by MTT assay. It counts as functional, cell-based. To be noted: MCF7, 72 h.

Take `CC1=C(CC[C@H]2[C@]3(C)CC[C@H](O)C(C)(C)O[C@H]3CC[C@@]2(C)O)[C@](C)(C/C=C/C(C)(C)OO)[C@H](O)CC1`: the pIC50 in the assay with KB 3-1 was 8.41.
On to `CCN1C(=O)SC[C@H]1[C@@]1(OC)C[C@H]2C[C@@H](CC[C@H](C)/C=C\C=C\CC/C(C)=C\C(=O)O2)O1`, for which the pIC50 in assay [1] was less than 5.00; in the assay with MDA-MB-231, less than 4.30. The inhibition came to 0% in [2] and 18% in the assay listed under Homo sapiens.
With `C[C@@H]1CC[C@H]2[C@@H](/C1=C/C[C@H]1[C@]3(C)CCC(=O)C(C)(C)O[C@H]3CC[C@]1(C)O)C(C)(C)CC[C@]2(C)O`, the pIC50 in the assay on KB 3-1 is 8.33.
Turning to `CO[C@]1([C@@H]2CSC(=O)N2C)C[C@H]2C[C@@H](CC[C@H](C)/C=C\C=C\CC/C(C)=C\C(=O)O2)O1`, the pIC50 in assay [1] is less than 5.00; in the assay on MDA-MB-231, 4.70. The inhibition in assay [2] came to 11%; in the assay listed under Homo sapiens, 19%.
Turning to `CC1=C(CC[C@H]2[C@]3(C)CC[C@H](O)C(C)(C)O[C@H]3CC[C@]2(C)O)[C@@H]2[C@H](CC1=O)[C@@](C)(O)CCC2(C)C` [SIPHOLENOL K], the pIC50 with KB 3-1 is 8.15.
With `CC1(C)CCC[C@]2(C)[C@H]3C[C@@H](O)[C@]4(C)[C@H](C=O)C(C=O)=CC[C@H]4[C@]3(C)CC[C@@H]12`, the values for the pIC50 in the assay with HepG2 [3], with MCF7 [4] and in the assay with HCT-116 were 5.77, 5.48 and 5.47, respectively.
Turning to `CC(=O)O[C@@H]1C[C@@H]2[C@@]3(C)CCCC(C)(C)[C@@H]3CC[C@@]2(C)[C@@H]2CCC3=C(C(=O)OC3)[C@@]12C`, the pIC50 in the assay on HepG2 [3] is 4.76; in the assay with MCF7 [4] it was 4.51; with HCT-116, 4.84.
On the same counts, the results for `CO[C@H]1C[C@H]2[C@]3(C)CC[C@H]4C(C)(C)CCC[C@]4(C)[C@H]3C[C@@H](OC(C)=O)[C@]2(C)C2=C1[C@@H](O)OC2=O` are 4.37, 4.39 and 4.65.
Regarding `C#C/C=C\CCCCC#CC#CC#CCCC/C=C\C#CCO` [DEHYDROISOPHONOCHALYNOL], the figures for the pIC50 in the assay on HeLa and with P388 were 7.77 and 8.14, respectively.
Regarding `CC[C@@]1(C)CCC[C@]2(C)[C@H]3C[C@H](OC(C)=O)[C@]4(C)CC(C(C)=O)=CC[C@H]4[C@]3(C)CC[C@@H]12`, in the assay with HepG2 [5], the pIC50 is 8.38.
As for `CO[C@]1([C@@H]2CSC(=O)N2CCCO)C[C@H]2C[C@@H](CC[C@H](C)/C=C\C=C\CC/C(C)=C\C(=O)O2)O1`, the pIC50 in [1] is 5.07; in the assay with MDA-MB-231, less than 4.30. In addition, the inhibition in assay [2] is 0%; in the assay listed under Homo sapiens, 21%.
With `C[C@@H]1C(=O)C[C@H]2[C@@H](/C1=C/C[C@H]1[C@]3(C)CC[C@H](O)C(C)(C)O[C@H]3CC[C@]1(C)O)C(C)(C)CC[C@]2(C)O` [SIPHOLENOL J], the pIC50 with KB 3-1 was 8.33.
In the case of `CO[C@]1([C@@H]2CSC(=O)N2Cc2ccccc2)C[C@H]2C[C@@H](CC[C@H](C)/C=C\C=C\CC/C(C)=C\C(=O)O2)O1`, the values for the pIC50 (in assay [1]; in the assay with MDA-MB-231; in the assay on MCF7 [6]) were 6.48, 5.17 and 6.11, respectively. Also, the inhibition in assay [2] came to 33%; in the assay filed under Homo sapiens, 67%.
Regarding `CC(=O)O[C@H]1C[C@H]2[C@]3(C)CC[C@H]4C(C)(C)CCC[C@]4(C)[C@H]3C[C@@H](O)[C@]2(C)C2=C1C(O)OC2=O` (some centres not stated), the pIC50 was 5.02 in the assay on HepG2 [3], 4.90 in the assay with MCF7 [4] and 5.46 in the assay with HCT-116.
In the case of `C#C/C=C\CCCCCCC#CC#CCCC/C=C\C#CCO` [CALLYSPONGENOL B], the pIC50 in the assay on HeLa and in the assay on P388 was 7.49 throughout.
With `CO[C@]1([C@@H]2CSC(=O)N2C(=O)c2ccccc2)C[C@H]2C[C@@H](CC[C@H](C)/C=C\C=C\CC/C(C)=C\C(=O)O2)O1`, the pIC50 in assay [1] was 6.08; in the assay with MDA-MB-231, 5.35; in the assay on MCF7 [6], 6.26. Also, the inhibition in assay [2] was 17%; in the assay listed under Homo sapiens, 53%.
Take `NC(=O)C[C@@]1(O)C=C(Cl)C(=O)C(Br)=C1`: the pIC50 in the assay with HeLa was 7.75.
For `CO[C@]1([C@@H]2CSC(=O)N2)C[C@H]2C[C@@H](CC[C@H](C)/C=C\C=C\CC/C(C)=C\C(=O)O2)O1`, the pIC50 in [1] is 5.03; in the assay with MDA-MB-231, 4.63. Further, the inhibition turned out to be 6% in [2] and 21% in the assay listed under Homo sapiens.
As to `O=C(O)[C@H](O)Cc1c[nH]c2ccc(O)cc12` [HYRTIOERECTINE C], in the assay on HeLa, the pIC50 is 7.70.
With `CCN1C(=O)SC[C@H]1[C@@]1(O)C[C@H]2C[C@@H](CC[C@H](C)/C=C\C=C\CC/C(C)=C\C(=O)O2)O1`, the pIC50 in assay [1] is 6.55; in the assay on MDA-MB-231, 5.14; with MCF7 [6], 6.02. Further, the values for the inhibition (in [2]; in the assay filed under Homo sapiens) were 31% and 70%, respectively.
Take `CC(=O)O[C@H]1C[C@H]2[C@]3(C)CC[C@H]4C(C)(C)CCC[C@]4(C)[C@H]3C[C@@H](O)[C@]2(C)C2=C1COC2=O` [SESTERSTATIN 7]: the figures for the pIC50 in the assay with HepG2 [3], with MCF7 [4] and in the assay on HCT-116 were 4.72, 4.62 and 4.58, respectively.
In the case of `NC(=O)Cc1cc(Br)c(O)c(Br)c1O`, the pIC50 in the assay on P388 was 8.17.
Take `CC(C)=CCC[C@@]1(C)C(CC[C@H]2[C@]3(C)CC[C@H](O)C(C)(C)O[C@H]3CC[C@@]2(C)O)=C(C)CC[C@H]1O` [SIPHONELLINOL D]: the pIC50 with KB 3-1 is 8.38.
Take `C#C/C=C\CCCC/C=C\C#CC#CCCC/C=C\C#CCO` [CALLYSPONGENOL C]: the pIC50 with HeLa was 7.89; with P388, 8.14.
Consider `C/C1=C/C(=O)O[C@@H]2C[C@@H](CC[C@H](C)/C=C\C=C\CC1)O[C@@](OC(=O)c1ccccc1)([C@@H]1CSC(=O)N1)C2`, for which the pIC50 in assay [1] is 6.33; with MDA-MB-231, 5.30; with MCF7 [6], 6.28. Moreover, the values for the inhibition (in assay [2]; in the assay filed under Homo sapiens) were 23% and 67%, respectively.
Regarding `CC1=C(CC[C@H]2[C@]3(C)CC[C@H](O)C(C)(C)O[C@H]3CC[C@]2(C)O)[C@@H]2[C@H](CC1OO)[C@@](C)(O)CCC2(C)C` (some centres not stated), in the assay on KB 3-1, the pIC50 is 8.33.
In the case of `CC1=CC[C@H]2[C@H](CC[C@]2(C)O)C(C)(C)[C@@H]1CC[C@H]1[C@]2(C)CC[C@@H](O)O[C@H]2CC[C@@]1(C)O`, the pIC50 in the assay on KB 3-1 was 8.25.
For the compound `CC1(C)CCC[C@]2(C)[C@H]3C[C@@H](O)[C@]4(C)[C@@H](C=O)C(C=O)=CC[C@H]4[C@]3(C)CC[C@@H]12`, the pIC50 with HepG2 [3] was 4.63; in the assay on MCF7 [4], 4.44; in the assay on HCT-116 it was 4.57.
In the case of `C/C1=C/C(=O)O[C@@H]2C[C@@H](CC[C@H](C)/C=C\C=C\CC1)O[C@@](O)([C@@H]1CSC(=O)N1)C2` [LATRUNCULIN A], the pIC50 is 6.55 in assay [1], 5.38 with MDA-MB-231 and 6.32 in the assay on MCF7 [6]. The inhibition in [2] came to 30%; in the assay listed under Homo sapiens it was 70%.
As to `CC(=O)O[C@@H]1C[C@@H]2[C@@]3(C)CCCC(C)(C)[C@@H]3CC[C@@]2(C)[C@@H]2CC=C3C(=O)OCC3[C@@]12C` (some centres not stated), the negative logarithm of the IC50 (pIC50) is 4.81 with HepG2 [3], 4.68 with MCF7 [4] and 4.81 with HCT-116.
Take `CO[C@H]1NC(=O)C2=C1[C@H](O)C[C@H]1[C@]3(C)CC[C@H]4C(C)(C)CCC[C@]4(C)[C@H]3C[C@@H](OC(C)=O)[C@]21C`: the results for the negative-log IC50 (pIC50) in the assay with HepG2 [3], in the assay on MCF7 [4] and in the assay on HCT-116 were 4.60, 4.26 and 4.58, respectively.
For the compound `CO[C@]1([C@@H]2CSC(=O)N2C2CCCC2)C[C@H]2C[C@@H](CC[C@H](C)/C=C\C=C\CC/C(C)=C\C(=O)O2)O1`, the values for the pIC50 (in [1]; in the assay with MDA-MB-231; in the assay with MCF7 [6]) were 5.98, 5.29 and 5.28, respectively. Moreover, the figures for the inhibition (in assay [2]; in the assay filed under Homo sapiens) were 20% and 49%, respectively.
Take `C=C(OO)C(C)CC[C@@]1(C)C(CC[C@H]2[C@]3(C)CC[C@H](O)C(C)(C)O[C@H]3CC[C@@]2(C)O)=C(C)CC[C@H]1O` (some centres not stated): in the assay with KB 3-1, the pIC50 was 8.34.
For `C[C@H]1N[C@@H](C(=O)O)Cc2c1[nH]c1ccc(O)cc21` [HYRTIOERECTINE B], the negative-log IC50 (pIC50) in the assay with HeLa was 7.70.
Regarding `COc1ccc(CC(=O)N2C(=O)SC[C@H]2[C@@]2(OC)C[C@H]3C[C@@H](CC[C@H](C)/C=C\C=C\CC/C(C)=C\C(=O)O3)O2)cc1`, the values for the pIC50 (in assay [1]; in the assay with MDA-MB-231) were less than 5.00 and 4.58, respectively. For the same compound, the inhibition in assay [2] worked out at 0%; in the assay filed under Homo sapiens it was 13%.
As to `O=C(O)C(=O)c1c(-c2c[nH]c3cc(O)ccc23)ncc2[nH]c3ccc(O)cc3c12`, the pIC50 with HeLa is 7.59.
`CC(=O)O[C@@H]1C[C@@H]2[C@@]3(C)CCCC(C)(C)[C@@H]3CC[C@@]2(C)[C@@H]2C[C@H](O)C3=C([C@H](O)OC3=O)[C@@]12C`: the pIC50 in the assay on HepG2 [3] was 4.66; with MCF7 [4] it was 4.49; in the assay on HCT-116, 4.24.
For the compound `C/C1=C/C(=O)O[C@@H]2C[C@@H](CC[C@H](C)/C=C\C=C\CC1)O[C@@](O)([C@@H]1CSC(=O)N1Cc1ccccc1)C2`, the pIC50 in assay [1] is 6.35; in the assay with MDA-MB-231 it was 5.57; in the assay on MCF7 [6], 6.20. Further, the inhibition in assay [2] turned out to be 24%; in the assay listed under Homo sapiens, 64%.
